Experimental data taken from patent US8003785B2 (Takeda Pharmaceutical Company Limited, priority 2008, dated 2011).

Each compound was assayed against T1, PLK1 (Homo sapiens, UniProt P53350) (assay: Biochemical Characterization Assay: HTRF kinase assay, GST-PLK1 phosphorylation of GST-p53). Conditions: GST-PLK1, GST-p53 substrate.
T1 construct: Full-length, active GST-PLK1 is purified from Sf9 insect cells; made in house; host or cells: Sf9 insect cells
Experimental: Biochemical Characterization Assay
Full-length, active GST-PLK1 is purified from Sf9 insect cells, and full-length GST-p53 is purified from E. coli. Anti-phospho p53 antibody is from Cell Signaling Technology. Europium-conjugated anti-rabbit antibody is from PerkinElmer Life and Analytical Sciences. APC-conjugated anti-GST antibody is from Prozyme.
Six microliters of GST-PLK1 (3 ug/mL) in Kinase Assay Buffer are then added and the solution incubated at 37° C. for 35 minutes. Six microliters of solution containing 43 mM EDTA to stop the reaction and a 1:600 dilution of anti-phospho-p53 antibody in 20 mM HEPES pH 7, 50 mM NaCl, and 0.5 mg/mL BSA (Antibody Binding Buffer) are added and the solution incubated at 37° C. for 30 minutes. […] The HTRF signal is read on an Envision reader from PerkinElmer Life and Analytical Sciences.

T1 sequence (P53350 whole entry): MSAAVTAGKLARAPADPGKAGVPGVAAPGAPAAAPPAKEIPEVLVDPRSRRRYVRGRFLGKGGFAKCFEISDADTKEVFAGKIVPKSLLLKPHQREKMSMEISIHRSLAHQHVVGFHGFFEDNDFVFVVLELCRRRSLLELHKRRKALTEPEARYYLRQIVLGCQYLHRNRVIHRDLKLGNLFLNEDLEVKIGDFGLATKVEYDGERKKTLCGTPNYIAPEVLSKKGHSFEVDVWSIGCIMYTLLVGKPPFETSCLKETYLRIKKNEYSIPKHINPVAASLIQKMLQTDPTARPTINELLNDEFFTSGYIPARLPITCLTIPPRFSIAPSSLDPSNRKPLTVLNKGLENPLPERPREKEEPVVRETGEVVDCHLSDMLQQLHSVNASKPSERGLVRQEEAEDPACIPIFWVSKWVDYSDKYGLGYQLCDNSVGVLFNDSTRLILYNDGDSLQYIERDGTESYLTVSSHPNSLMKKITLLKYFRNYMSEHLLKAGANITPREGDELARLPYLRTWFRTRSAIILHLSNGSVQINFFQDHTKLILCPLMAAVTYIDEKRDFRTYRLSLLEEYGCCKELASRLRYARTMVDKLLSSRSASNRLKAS

| SMILES | IC50 |
| --- | --- |
| CN1CCC(NC(=O)c2ccc(Nc3ncc4c(n3)N(C3CCCC3)CC(F)(F)C(=O)N4C)c(OC(F)(F)F)c2)CC1 [Example I-181, 4-(9-cyclopentyl-7,7-difluoro-5-methyl-6-oxo-6,7,8,9-tetrahydro-5H-pyrimido[4,5-b][1,4]diazepin-2-ylamino)-N-(1-methyl-piperidin-4-yl)-3-trifluoromethoxy-benzamide] | 1 to 50 nM |
| CCCN1C(=O)C(F)(F)CN(C2CCCC2)c2nc(Nc3ccc(C(=O)NC4CCN(C)CC4)cc3OC)ncc21 [Example I-165, 4-(9-cyclopentyl-7,7-difluoro-6-oxo-5-propyl-6,7,8,9-tetrahydro-5H-pyrimido[4,5-b][1,4]diazepin-2-ylamino)-3-methoxy-N-(1-methyl-piperidin-4-yl)-benzamide] | 51 to 500 nM |
| CN1C(=O)C(F)(F)CN(C2CCCCC2)c2nc(Nc3ccc(C(=O)NC4CCOCC4)cc3)ncc21 [Example I-263, 4-(9-cyclohexyl-7,7-difluoro-5-methyl-6-oxo-6,7,8,9-tetrahydro-5H-pyrimido[4,5-b][1,4]diazepin-2-ylamino)-N-(tetrahydro-pyran-4-yl)-benzamide] | 1 to 50 nM |
| CCc1cc(C(=O)NC2CCN(C)CC2)ccc1Nc1ncc2c(n1)N(C1CCCC1)CC(F)(F)C(=O)N2C [Example I-195, 4-(9-cyclopentyl-7,7-difluoro-5-methyl-6-oxo-6,7,8,9-tetrahydro-5H-pyrimido[4,5-b][1,4]diazepin-2-ylamino)-3-ethyl-N-(1-methyl-piperidin-4-yl)-benzamide] | 1 to 50 nM |
| COc1cc(C(=O)NCCCN(C)C)ccc1Nc1ncc2c(n1)N(C1CCCCC1)CC(F)(F)C(=O)N2C [Example I-254, 4-(9-cyclohexyl-7,7-difluoro-5-methyl-6-oxo-6,7,8,9-tetrahydro-5H-pyrimido[4,5-b][1,4]diazepin-2-ylamino)-N-(3-dimethylamino-propyl)-3-methoxy-benzamide] | 1 to 50 nM |
| COc1cc(C(=O)NC2CCOCC2)ccc1Nc1ncc2c(n1)N(C1CCCCC1)CC(F)(F)C(=O)N2C [Example I-252, 4-(9-cyclohexyl-7,7-difluoro-5-methyl-6-oxo-6,7,8,9-tetrahydro-5H-pyrimido[4,5-b][1,4]diazepin-2-ylamino)-3-methoxy-N-(tetrahydro-pyran-4-yl)-benzamide] | 1 to 50 nM |

Same assay, conditions: GST-PLK1, GST-p53 substrate, ATP

| SMILES | IC50 |
| --- | --- |
| COc1cc(C(=O)NCC(O)CN2CCN(C(=O)OC(C)(C)C)CC2)ccc1Nc1ncc2c(n1)N(C1CCCC1)CC(F)(F)C(=O)N2C (stereo not shown) [Example I-120, 4-{3-[4-(9-cyclopentyl-7,7-difluoro-5-methyl-6-oxo-6,7,8,9-tetrahydro-5H-pyrimido[4,5-b][1,4]diazepin-2-ylamino)-3-methoxy-benzoylamino]-2-hydroxy-propyl}-piperazine-1-carboxylic acid tert-butyl ester] | 51 to 500 nM |
| O=C(NC1CCOCC1)c1ccc(Nc2ncc3c(n2)N(C2CCCC2)CC(F)(F)C(=O)N3)cc1 [Example I-136, 4-(9-cyclopentyl-7,7-difluoro-6-oxo-6,7,8,9-tetrahydro-5H-pyrimido[4,5-b][1,4]diazepin-2-ylamino)-N-(tetrahydro-pyran-4-yl)-benzamide] | 500 to 5000 nM |
| COc1cc(C(=O)NCCCN(C)C)ccc1Nc1ncc2c(n1)N(C1CCCC1)CC(F)(F)C(=O)N2 [Example I-154, 4-(9-cyclopentyl-7,7-difluoro-6-oxo-6,7,8,9-tetrahydro-5H-pyrimido[4,5-b][1,4]diazepin-2-ylamino)-N-(3-dimethylamino-propyl)-3-methoxy-benzamide] | 500 to 5000 nM |
| COc1cc(C(=O)N[C@@H]2CN(C(=O)OC(C)(C)C)C[C@H]2O)ccc1Nc1ncc2c(n1)N(C1CCCC1)CC(F)(F)C(=O)N2C [Example I-103, (3R,4R)-3-[4-(9-cyclopentyl-7,7-difluoro-5-methyl-6-oxo-6,7,8,9-tetrahydro-5H-pyrimido[4,5-b][1,4]diazepin-2-ylamino)-3-methoxy-benzoylamino]-4-hydroxy-pyrrolidine-1-carboxylic acid tert-butyl ester] | 1 to 50 nM |
